Reference: patent EP1222194B1, “7-ACYLAMINO-3-HETEROARYLTHIO-3-CEPHEM CARBOXYLIC ACID ANTIBIOTICS AND PRODRUGS THEREOF” (priority 1999, dated 2001)
Values after ≈ are worked out from the molar mass of the structure shown.

Experiments:
[1] = Serum binding determination by ultrafiltration and HPLC; format: in vitro ADME; conditions: human, serum, % of compound bound to serum as determined by HPLC
Description: The more accurate measurement of binding of selected cephalosporin compounds was performed using HPLC as described below. […] Serum is placed in a shaking water bath preheated to 37 ± 2 °C for 5 to 10 minutes to heat serum to 37 °C. Serum pH is measured and recorded, while serum is 37 °C using pH paper. Measurements are taken twice, 3 minutes apart. […] After blowing for several minutes, serum is heated to 37 °C and measurements are taken twice, 3 minutes apart using pH paper to determine the pH. Store at 4 °C. The serum is stable for 7 days. Always check the pH before each use. • 2. Before any centrifugation, the centrifuge temperature must be adjusted to 25 ± 2 °C. Preheat the centrifuge by spinning for 45 minutes at the same speed to be used in the assay (1900 g) with two tubes of water in the rotor and the temperature set to 25 °C. When the centrifuge stops immediately check the temperature of the tubes of water with a calibrated thermometer. The temperature of the tubes of water must be 25 ± 2 °C. […] Continue spinning and measuring the temperature and adjusting the setting until the temperature is 25 ± 2 °C. • 3. Prepare blank ultrafiltrate by pipetting blank pH 7.4 serum into an Amicon Centrifree Micropartition devices, centrifuge: fixed angle rotor, 1900 g, 25 °C for 20 minutes. Heat ultrafiltrate in a shaking water bath preheated to 37 °C. Measure ultrafiltrate pH and adjust to the pH of the serum (7.4 ± 0.2). • 4. Pipette 190 ul of blank ultrafiltrate into a set of labeled 1.7 mL polypropylene microfuge tubes for 3 of each level. Pipette 10 µL of the appropriate standard stock 50, 200, 1000 µg/mL to make standards 2.5, 10, and 50 µg/mL respectively. Vortex each tube well. One set of the standard samples are mixed 1:1 with 0.2 M acetic acid and injected onto the HPLC (MSTD). These samples are the membrane standards and will be used to compare to the other standards. Pipette 190 ul of ultrafiltrate and spike with 10 ul of whatever solution (e.g. water) the standards are prepared in to make the zero standard. • 5. Pipette 475 µL of blank heated pH 7.4 serum into a set of labeled 1.7 mL polypropylene microfuge tubes for 2 of each (Serum A and Serum B). Pipette 25 µL of the 1000 µg/mL standard stock into each tube, vortex each tube well to make serum standard 50 µg/mL. Remove 100 µL of serum and deproteinate with 200 µL 4% TCA while vortexing to make serum time 0 (serum 50, T0). Place serum tubes in a shaking water bath at 37 °C for 10 minutes. Pipet 100 µL of serum out and deproteinate with 200 µL 4% TCA, to make serum time 10 min (serum 50, T10). Pipet 200 ul serum standard 50 µg/mL into an ultrafiltration device, which is not treated with TCA, to determine free drug in samples (Rat Serum 50). • 6. Transfer serum and standard samples to labeled Amicon Centrifree Micropartition filters, and centrifuge: 1900 g, 25 °C for 10 minutes. The extracted serum samples (T0 and T 10) are spun down and supernatant is loaded into HPLC vials. • 7. 100 µL of ultrafiltrate sample and 100 µL of 0.2 M acetic acid were mixed together to stabilize the compound in ultrafiltrate. • 8. Transfer entire stabilized ultrafiltrate solution to a labeled autoinjector HPLC vial cap with Teflon septa, and inject on HPLC.
Peak height or area is used in a weighted linear regression.
High levels of binding to human serum proteins limits the concentration of compound available for antibacterial activity in the body.

[2] = system: E. faecium ATCC 35667; assay: Broth microdilution MIC (NCCLS); format: cell-based; conditions: Enterococcus faecium, ATCC35667, Mueller-Hinton Broth, 24 h at 35 °C
Description: (§1) Compounds were evaluated for antimicrobial activity against a panel of bacterial strains using a broth microdilution assay performed as recommended by the NCCLS (1). The minimum inhibitory concentration (MIC) was defined as the lowest concentration of drug which prevented the growth of the bacteria. The following 16 organisms constituted the primary panel of evaluation:
(§2) For this primary panel, the assay was performed in Mueller-Hinton Broth (MHB) with a final bacterial inoculum of 5 x 10^5 CFU/mL (from an early-log phase culture) and a final volume of 100 µL. Control drugs, including imipenem, vancomycin, Penicillin G, dicloxacillin (vs. MSSA ATCC29213 only), and new compounds were prepared at a concentration equivalent to 2-fold the desired final concentration. Dilution of compounds were prepared directly in the plates by serial 2-fold dilution using a multichannel pipette. Positive and negative growth control were included in each plate.
(§3) The bacterial inocula were prepared as follows. For each strain one isolated colony was used to inoculate a volume of 8 mL of Mueller-Hinton broth and these cultures were incubated overnight (20h) at 35 °C in a shaking incubator. At the exception of Enterococcus strains, culture were then diluted 1:10 and allowed to grow for an additional one hour at 35 °C in a shaking incubator. The inocula were prepared by diluting the early log-phase (1h) cultures 1:1000 with fresh Mueller-Hinton broth. E. faecium and E. faecalis were prepared by diluting overnight cultures 1:333 and 1:666, respectively, with fresh Mueller-Hinton broth . A volume of 50 µL of the inocula was added to each well. […] The exact inocula were determined by applying […] of 10-fold serial dilution of the bacterial suspensions on TSA. After overnight incubation at 35 °C, colony forming units were manually counted.
(§4) Microtiter plates were incubated during 24 h at 35 °C and were read using a microtiterplate reader (Molecular Devices) at 650 nm as well as by visual observation using a microtiterplate reading mirror.

[3] = system: S. aureus ATCC 13709 (Meth^S); assay: Broth microdilution MIC (NCCLS); format: cell-based; conditions: Staphylococcus aureus, ATCC13709, Mueller-Hinton Broth, 24 h at 35 °C
Description: as §1, §2, §3, §4

[4] = In vitro stability of compounds in rat serum; format: in vitro ADME; conditions: for degraded at 1 h: % loss after 60 min exposure to rat serum as determined by HPLC, 37 °C; for stability in rat serum (statement in words): compared with other 7-acylamino-3-heteroarylthio-3-cephem carboxylic acids
Description: In general, compounds from the class of 7-acylamino-3-heteroarylthio-3-cephem carboxylic acids have higher chemical reactivity and lower stability towards chemical or enzymatic decomposition than most typical cephalosporins. […] Results shown in Table 2 represent percentage loss of the initial amount of cephalosporin compound upon 60 min incubation in rat serum.
Procedure for measuring degree of degradation of cephalosporin compounds in rat serum was as follows:
Fresh control rat serum (heparinized and stored frozen) is preincubated at 37 °C for 15 min in a shaking water bath. pH is measured using test strips. 25 µL of a 2 mg/mL solution cephalosporin compound (in water) of is then added to each matrix to make 1000 µL. Solutions were incubated at 37 °C. 100ul of solution was taken out at time = 0, 15, 30, and 60 min post dose and added 200 µL 4% trichloroacetic acid, vortexed, and centrifuged for 10 min at 14,000 rpm in an Eppendorfmicrocentrifuge. 25 µL of each supernatant was injected onto HPLC. Experiment was repeated using 25 µL of a 0.2 mg/mL cephalosporin compound. Degradation is measured as the percentage of HPLC peak area at time t relative to peak area at time 0.
HPLC conditions: Beckman Ultrasphere C18 column. 5u. 4.6mm x 25cm. 1 mL/min of 95% 0.1 M ammonium acetate, pH 6, 5% ACN going to 75% buffer/organic over 20min. UV monitored at 254 and 280 nm.

For NCCSCc1ncccc1SC1=C(C(=O)O)N2C(=O)[C@@H](NC(=O)/C(=N\O)c3nc(N)sc3Cl)[C@H]2SC1 [Cmpd 1, (7R)-7-[(Z)-2-(2-amino-5-chlorothiazol-4-yl)-2-(hydroxyimino)acetamido]-3-[2-(2-aminoethylthiomethyl)pyrid-3-ylthio]-3-cephem-4-carboxylic acid], the fraction unbound [1] was 0.1, the MIC [2] was 0.5 µg/mL (≈ 0.83 µM) and the MIC [3] was 0.13 µg/mL (≈ 0.216 µM). The degraded at 1 h [4] was 9% and the “stability in rat serum (statement in words)” value (shortened to “stability in rat serum”) [4] was “improved stability”.
With NCCSCc1ncccc1SC1=C(C(=O)O)N2C(=O)[C@@H](NC(=O)/C(=N\O)c3nsc(N)n3)[C@H]2SC1 [Cmpd 2, (7R)-7-[(Z)-2-(5-amino-1,2,4-thiadiazol-3-yl)-2-(hydroxyimino)acetamido]-3-[2-(2-aminoethylthiomethyl)pyrid-3-ylthio]-3-cephem-4-carboxylic acid] the fraction unbound [1] was no less than 0.2, the MIC [2] was 1 µg/mL (≈ 1.76 µM) and the degraded at 1 h [4] was 2%. The “stability in rat serum” value [4] was “improved stability”.
N=C(N)NCCSCc1ncccc1SC1=C(C(=O)O)N2C(=O)[C@@H](NC(=O)/C(=N\O)c3nsc(N)n3)[C@H]2SC1 [Cmpd 2-R, (7R)-7-[(Z)-2-(5-amino-1,2,4-thiadiazol-3-yl)-2-(hydroxyimino)acetamido]-3-[2-(2-guanidinoethylthiomethyl)pyrid-3-ylthio]-3-cephem-4-carboxylic acid] showed a fraction unbound [1] of no less than 0.2, an MIC [2] of 0.5 µg/mL (≈ 0.819 µM) and an MIC [3] of 0.13 µg/mL (≈ 0.213 µM). For the same molecule, the degraded at 1 h [4] was 10% and the “stability in rat serum” value [4] was “improved stability”.
For N=C(N)NCCSCc1ncccc1SC1=C(C(=O)O)N2C(=O)[C@@H](NC(=O)/C(=N\O)c3nc(N)sc3Cl)[C@H]2SC1 [Cmpd 2-S, (7R)-7-[(Z)-2-(2-amino-5-chlorothiazol-4-yl)-2-(hydroxyimino)acetamido]-3-[2-(2-guanidinoethylthiomethyl)pyrid-3-ylthio]-3-cephem-4-carboxylic acid], the fraction unbound [1] was 0.17, the MIC [2] was 0.25 µg/mL (≈ 0.388 µM) and the MIC [3] was 0.06 µg/mL (≈ 0.0931 µM). For the same molecule, the degraded at 1 h [4] was 38% and the “stability in rat serum” value [4] was “improved stability”.
NCCSCc1ccncc1SC1=C(C(=O)O)N2C(=O)[C@@H](NC(=O)/C(=N\O)c3nc(N)sc3Cl)[C@H]2SC1 [Cmpd 3, (7R)-7-[(Z)-2-(2-amino-5-chlorothiazol-4-yl)-2-(hydroxyimino)acetamido]-3-[4-(2-aminoethylthiomethyl)pyrid-3-ylthio]-3-cephem-4-carboxylic acid] showed a fraction unbound [1] of 0.1, an MIC [2] of 1 µg/mL (≈ 1.66 µM) and an MIC [3] of 0.13 µg/mL (≈ 0.216 µM). The degraded at 1 h [4] was 3% and the “stability in rat serum” value [4] was “improved stability”.
